Data taken from ChEMBL document CHEMBL2010654, “Novel isoxazole polycyclic aromatic hydrocarbons as DNA-intercalating agents” (Eur J Med Chem, 2012).
Calls of active or inactive are those of the source. The rule behind the calls is not given here. *1 amine or outer side, *2 acyl side, *3 side chain or, on linkers, in order; H or OH if unused. Where a SMILES comes first, the peptide text is derived from it. Bridges are numbered along the chain shown (N, C = ends). Roman numbers before positions name the chains, in order. [ ]: non-standard residue; d: D form. Actinocin(1to9) = Cc1c2oc3c(C)ccc(C(=O)[*:2])c3nc-2c(C(=O)[*:1])c(N)c1=O; NMeV = CN[C@H](C(=O)O)C(C)C; Sar = CNCC(=O)O

Columns and labels:
THP-1 = assay: Cytotoxicity against human THP1 cells after 20 hrs by MTS assay; format: functional, cell-based; settings: THP-1, 20 h
HeLa = assay: Cytotoxicity against human HeLa cells after 20 hrs by MTS assay; format: functional, cell-based
Vero = assay: Cytotoxicity against african green monkey Vero cells after 20 hrs by MTS assay; format: cell-based; settings: Chlorocebus sabaeus
U-937 = assay: Cytotoxicity against human U937 cells after 20 hrs by MTS assay; format: functional, cell-based; settings: U-937, 20 h
MOLT-3 = assay: Cytotoxicity against human MOLT3 cells after 20 hrs by MTS assay; format: functional, cell-based; settings: MOLT-3, 20 h
A549 [1] = assay: Cytotoxicity against human A549 cells after 20 hrs by SRB assay; format: functional, cell-based; settings: A549, 20 h
Nucleic Acid [2] = assay: Binding affinity to Escherichia coli supercoiled phiX174 RF1 DNA assessed as DNA unwinding in presence of topoisomerase 1 after 30 mins by agarose gel electrophoresis; format: nucleic-acid assay
Nucleic Acid [3] = assay: Binding affinity to calf thymus DNA by UV titration analysis; format: nucleic-acid assay; settings: Bos taurus
Nucleic Acid [4] = assay: Binding affinity to poly-d(AT)2 DNA by UV titration analysis; format: nucleic-acid assay
Nucleic Acid [5] = assay: Binding affinity to polyd(GC)2 DNA by UV titration analysis; format: nucleic-acid assay
A549 [6] = assay: Cytotoxicity against human A549 cells assessed as reduction of cell number at 0.5 ug/ml after 8 hrs relative to control; format: functional; design: scale not given: the % may be the effect or the level left

Row | Activity (Nucleic Acid [2]) | Kb (Nucleic Acid [3]) | Kb (Nucleic Acid [4]) | Kb (Nucleic Acid [5]) | Structure (SMILES) | IC50 (THP-1) | IC50 (HeLa) | IC50 (Vero) | IC50 (U-937) | IC50 (MOLT-3) | IC50 (A549 [1]) | Activity (A549 [6])
1 |  |  |  |  | CN(C)C(=O)C1CC(c2cc3ccccc3c3ccccc23)=NO1 (configuration not stated) | > 500 µM | 401 µM | > 500 µM | > 500 µM | > 500 µM | 435 µM | 
2 | Active | 1.7 ×10⁵ /M | 1.6 ×10⁵ /M | 0.3 ×10⁵ /M | CN(C)C(=O)[C@H]1C[C@H](c2ccc3ccc4cccc5ccc2c3c45)N(Cc2ccccc2)O1 (racemic) | 6 µM | 5 µM | 42 µM | 37 µM | 6 µM | 4 µM | 
3 |  |  |  |  | CN(C)C(=O)[C@H]1C[C@H](c2cc3ccccc3c3ccccc23)N(Cc2ccccc2)O1 (racemic) | 17 µM | 14 µM | 115 µM | 100 µM | 15 µM | 10 µM | 
4 |  |  |  |  | CN(C)C(=O)c1cc(-c2cc3ccccc3c3ccccc23)no1 | 403 µM | 290 µM | > 500 µM | > 500 µM | 420 µM | 335 µM | 
5 |  |  |  |  | CN(C)C(=O)C1CC(c2ccc3ccc4cccc5ccc2c3c45)=NO1 (configuration not stated) | 69 µM | 69 µM | 160 µM | 194 µM | 65 µM | 49 µM | 
6 |  |  |  |  | CN(C)C(=O)[C@H]1CON(Cc2ccccc2)[C@H]1c1ccc2ccc3cccc4ccc1c2c34 (racemic) | 93 µM | 79 µM | 151 µM | 102 µM | 100 µM | 63 µM | 
7 |  |  |  |  | CN(C)C(=O)c1cc(-c2ccc3ccc4cccc5ccc2c3c45)no1 | 78 µM | 71 µM | 165 µM | 202 µM | 73 µM | 60 µM | 
8 |  |  |  |  | Cc1c2oc3c(C)ccc(C(=O)N[C@@H]4C(=O)N[C@H](C(C)C)C(=O)N5CCC[C@H]5C(=O)N(C)CC(=O)N(C)[C@@H](C(C)C)C(=O)O[C@@H]4C)c3nc-2c(C(=O)N[C@@H]2C(=O)N[C@H](C(C)C)C(=O)N3CCC[C@H]3C(=O)N(C)CC(=O)N(C)[C@@H](C(C)C)C(=O)O[C@@H]2C)c(N)c1=O [DACTINOMYCIN] (I: T[dV]P[Sar][NMeV] / II: T[dV]P[Sar][NMeV]; ester I:1-I:C, II:1-II:C; linker I:N-II:N via Actinocin(1to9)) |  |  |  |  |  |  | 40%
9 |  |  |  |  | CN(C)C(=O)[C@H]1C[C@H](c2ccc3ccc4cccc5ccc2c3c45)N(C)O1 (racemic) | 60 µM | 63 µM | 141 µM | 165 µM | 52 µM | 41 µM | 
10 |  |  |  |  | CN(C)C(=O)[C@@H]1CON(C)[C@H]1c1ccc2ccc3cccc4ccc1c2c34 (racemic) | 61 µM | 65 µM | 143 µM | 185 µM | 59 µM | 44 µM | 
11 |  |  |  |  | CN(C)C(=O)[C@H]1C[C@H](c2cc3ccccc3c3ccccc23)N(C)O1 | 95 µM | 86 µM | 160 µM | 98 µM | 105 µM | 68 µM | 
12 |  |  |  |  | CN(C)C(=O)[C@@H]1C[C@H](c2ccc3ccc4cccc5ccc2c3c45)N(C)O1 (racemic) | 75 µM | 75 µM | 163 µM | 199 µM | 69 µM | 55 µM | 
13 |  | 6.8 ×10³ /M |  |  | CN1O[C@H](CO)C[C@@H]1c1ccc2ccc3cccc4ccc1c2c34 (relative stereo) |  |  |  |  |  |  | 
